In US20070098900A1, “Media providing non-contacting formation of high contrast marks and method of using same, composition for forming a laser-markable coating, a laser-markable material and process of forming a marking” (FUJI HUNT PHOTOGRAPHIC CHEMICALS, INC., priority 2004, published 2007):

Test: Solubility of electron donor dye precursors in ethyl acetate
Assay type: physicochemical
Source text: For reference, the following Table 1 lists electron donor dye precursor compounds, and includes the corresponding solubility in ethyl acetate, which are used in the following examples.

Solubility in ethyl acetate [g/100 grams] | SMILES
5 | CCN(CC)c1ccc2c(c1)Oc1cc(C)ccc1C21OC(=O)c2ccccc21 [Sample D-2]
20 | CCCCCCOc1ccc2c(c1)Oc1cc(OCCCCCC)ccc1C21OC(c2cccs2)=Nc2ccccc21 [Sample D-5]
4 | CCN(CC)c1ccc2c(c1)Oc1cc(C)c(Nc3ccccc3)cc1C21OC(=O)c2ccccc21 [Sample D-3]
